Bridge positions count the residues as written; N and C are the ends. Square brackets hold non-standard residues; d marks the D form. Peptide text beside a SMILES is read from it. Phe(3,4-Cl2) = N[C@@H](Cc1ccc(Cl)c(Cl)c1)C(=O)O; Phe(4-CF3) = N[C@@H](Cc1ccc(C(F)(F)F)cc1)C(=O)O; Bip = N[C@@H](Cc1ccc(-c2ccccc2)cc1)C(=O)O; Phe(4-Cl) = N[C@@H](Cc1ccc(Cl)cc1)C(=O)O; NMeF = CN[C@@H](Cc1ccccc1)C(=O)O; NMeE = CN[C@@H](CCC(=O)O)C(=O)O; NMeA = CN[C@@H](C)C(=O)O
Target: human PCSK9 (Homo sapiens, UniProt Q8NBP7)
Test: PCSK9 ligand binding assay (TR-FRET): interference with binding of human PCSK9 to human LDLR
Conditions: PCSK9 FRET assay, efficacy (Amax); 0% = DMSO, 100% = 1 uM unlabeled human PCSK9
Description: The activity of cyclic polypeptides according to the disclosure as PCSK9 can be assessed using a time resolved fluorescence resonance energy transfer (TR-FRET) assay. This time resolved fluorescence resonance energy transfer (TR-FRET) assay measures the ability of a cyclic polypeptides of the disclosure to interfere with the binding of human PCSK9 to human LDLR, providing measures of both potency (IC50) and efficacy (Amax).
Solutions of varying concentrations are prepared by diluting a cyclic polypeptide of the disclosure in dimethylsulfoxide (DMSO) and the resulting solutions are pipetted into a plate. DMSO is used as a negative control. An intermediate plate is prepared in by transferring a known amount of each polypeptide solution and of the control from the compound plate into a corresponding well containing assay buffer and mixing thoroughly. A third plate is then prepared to be used for the assay by adding Human PCSK9 Alexa Fluor 647, followed by a known amount of each solution from the intermediate plate. Unlabeled human PCSK9 in assay buffer containing DMSO is used as a positive control for the assay. Following incubation, Human LDLR extracellular domain-Europium Kryptate is added to each well of the assay plate and the resulting mixture is incubated for an additional period of time. The TR-FRET signal is measured and the FRET ratio (FRET/Europium) is used to calculate the IC50 and Amax of the cyclic polypeptides.
The PCSK9 binding of the cyclic polypeptides of the disclosure were measured using a time resolved fluorescence resonance energy transfer (TR-FRET) assay. This time resolved fluorescence resonance energy transfer (TR-FRET) assay measures the ability of a cyclic polypeptide of the disclosure to interfere with the binding of human PCSK9 to human LDLR, providing measures of both potency (IC50) and efficacy (Amax).
• Human PCSK9 • Human PCSK9 Alexa Fluor 647 • Human LDLR extracellular domain-Europium Kryptate • Proxi plate-low volume assay plate (PerkinElmer #6008280) • Greiner V-bottom (Greiner BioOne #781280) • Assay Buffer • 20 mM HEPES, pH 7.5 • 150 mM NaCl • 1 mM CaCl2 • 0.01% v/v Tween20 • 0.01% w/v BSA
A master compound plate was prepared in a Greiner V bottom plate by diluting cyclic polypeptides of the disclosure in dimethylsulfoxide to the correct concentration for the desired top concentration based on the desired final concentration: for a 30 uM final concentration the master plate concentration is 1.5 mM (68 uL DMSO+12 uL 10 mM of a cyclic polypeptide of the disclosure), for a 10 uM final concentration the master plate concentration is 0.5 mM (76 uL DMSO+4 uL 10 mM of a cyclic polypeptide of the disclosure), for a 3 uM final concentration the master plate concentration is 150 uM (69 uL DMSO+1 uL 10 mM a cyclic peptide of the disclosure). These solutions were pipetted into columns 1 and 11 of the compound plate. Threefold serial dilutions were generated in columns 2-10 and 12-20 of the compound plate by transferring 10 uL into 20 μL of DMSO. Columns 21 and 22 of the compound plate were negative controls containing DMSO alone.
An intermediate plate was generated in a Greiner V bottom plate by transferring 8 uL from each well of the master plate into a corresponding well containing 92 μL of assay buffer and mixing thoroughly.
A Proxi plate-low volume assay plate was used for the assay. To all wells of the plate was added 10 μL of 16 nM Human PCSK9 Alexa Fluor 647, followed by 5 uL from the intermediate plate. […] Following a 30 minute incubation, 5 μL of 4 nM Human LDLR extracellular domain-Europium Kryptate was added and the mixture was incubated for an additional 2 hours.
The TR-FRET signal was measured on an EnVision or PheraStar instrument with a […] delay, 330 nm excitation and 665 nm emission (FRET), and 330 nm excitation and 615 nm (Europium). The FRET ratio (FRET/Europium) was used for calculations. […]

Sequence of human PCSK9 (Q8NBP7 153-692): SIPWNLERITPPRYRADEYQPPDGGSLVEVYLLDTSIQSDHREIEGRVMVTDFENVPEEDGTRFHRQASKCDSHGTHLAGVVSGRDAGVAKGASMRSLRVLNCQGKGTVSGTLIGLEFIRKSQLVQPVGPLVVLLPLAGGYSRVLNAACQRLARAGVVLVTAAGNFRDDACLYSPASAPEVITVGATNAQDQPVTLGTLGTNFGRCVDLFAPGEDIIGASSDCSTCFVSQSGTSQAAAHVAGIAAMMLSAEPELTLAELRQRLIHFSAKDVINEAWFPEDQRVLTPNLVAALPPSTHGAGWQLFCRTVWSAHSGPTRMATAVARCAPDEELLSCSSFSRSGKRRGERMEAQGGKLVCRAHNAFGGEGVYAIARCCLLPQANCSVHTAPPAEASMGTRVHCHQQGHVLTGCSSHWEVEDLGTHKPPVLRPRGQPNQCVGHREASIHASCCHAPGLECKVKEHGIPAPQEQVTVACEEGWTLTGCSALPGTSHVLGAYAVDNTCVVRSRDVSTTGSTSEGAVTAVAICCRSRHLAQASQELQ
Sequence of human PCSK9 (Q8NBP7 31-152 partner limits assumed): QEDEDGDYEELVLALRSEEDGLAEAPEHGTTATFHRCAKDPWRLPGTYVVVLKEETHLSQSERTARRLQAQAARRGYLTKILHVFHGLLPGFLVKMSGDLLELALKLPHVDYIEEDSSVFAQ

CC(C)[C@@H]1NC(=O)[C@H](Cc2ccccc2)NC(=O)CSC[C@@H](C(=O)NCC(N)=O)NC(=O)[C@@H]2CCCN2C(=O)[C@H](CCCNC(=N)N)NC(=O)[C@H](CCC(=O)O)NC(=O)[C@H](C)N(C)C(=O)[C@H](Cc2ccc(C(F)(F)F)cc2)NC(=O)[C@H](C)N(C)C(=O)[C@H](Cc2ccc(C(F)(F)F)cc2)NC(=O)[C@H]([C@@H](C)O)NC(=O)[C@H]([C@@H](C)O)NC(=O)[C@H](CO)NC1=O [Example 1-11, Ac*-F-V-S-T-T-(p-CF3)F-(N-Me)A-(p-CF3)F-(N-Me)A-E-R-P-C*-G-NH2] ({CH2CO}-FVSTT[Phe(4-CF3)][NMeA][Phe(4-CF3)][NMeA]ERPCG-NH2; thioether N-13)
Maximum % inhibition: 55%

CC(C)[C@@H]1NC(=O)[C@H](Cc2ccccc2)NC(=O)CSC[C@@H](C(=O)NCC(N)=O)NC(=O)[C@@H]2CCCN2C(=O)[C@H](C)NC(=O)[C@H](CCC(N)=O)NC(=O)[C@H](C)N(C)C(=O)[C@H](Cc2ccc(-c3ccccc3)cc2)NC(=O)[C@H](Cc2ccccc2)N(C)C(=O)[C@H](C)NC(=O)[C@H]([C@@H](C)O)NC(=O)[C@H]([C@@H](C)O)NC(=O)[C@H](CC(N)=O)NC1=O [Example 1-18, Ac*-F-V-N-T-T-A-(N-Me)F-B-(N-Me)A-Q-A-P-C*-G-NH2] ({CH2CO}-FVNTTA[NMeF][Bip][NMeA]QAPCG-NH2; thioether N-13)
Maximum % inhibition: 53%

CC(C)[C@@H]1NC(=O)[C@H](Cc2ccccc2)NC(=O)CSC[C@@H](C(N)=O)NC(=O)[C@@H]2CCCN2C(=O)[C@H](C)NC(=O)[C@H](CC(N)=O)NC(=O)[C@H](C)N(C)C(=O)[C@H](Cc2ccc(Cl)cc2)NC(=O)[C@H](C)N(C)C(=O)[C@H](Cc2ccccc2)NC(=O)[C@H]([C@@H](C)O)NC(=O)[C@H]([C@@H](C)O)NC(=O)[C@H](C)NC1=O [Example 2-5, Ac*-F-V-A-T-T-F-(N-Me)A-(p-Cl)F-(N-Me)A-N-A-P-C*-NH2] ({CH2CO}-FVATTF[NMeA][Phe(4-Cl)][NMeA]NAPC-NH2; thioether N-13)
Maximum % inhibition: 46%

CC(C)[C@@H]1NC(=O)[C@H](Cc2ccccc2)NC(=O)CSC[C@@H](C(=O)NCC(N)=O)NC(=O)[C@@H]2CCCN2C(=O)[C@H](CO)NC(=O)[C@H](CCC(=O)O)NC(=O)[C@H](C)N(C)C(=O)[C@H](Cc2ccc(-c3ccccc3)cc2)NC(=O)[C@H](Cc2ccccc2)N(C)C(=O)[C@H](CO)NC(=O)[C@H]([C@@H](C)O)NC(=O)[C@H]([C@@H](C)O)NC(=O)[C@H](CC(=O)O)NC1=O [Example 1-5, Ac*-F-V-D-T-T-S-(N-Me)F-B-(N-Me)A-E-S-P-C*-G-NH2] ({CH2CO}-FVDTTS[NMeF][Bip][NMeA]ESPCG-NH2; thioether N-13)
Maximum % inhibition: 95%

CC(C)[C@@H]1NC(=O)[C@H](Cc2ccccc2)NC(=O)CSC[C@@H](C(=O)NCC(N)=O)NC(=O)[C@@H]2CCCN2C(=O)[C@H](CCCNC(=N)N)NC(=O)[C@H](CC(=O)O)NC(=O)[C@H](C)N(C)C(=O)[C@H](Cc2ccc(Cl)c(Cl)c2)NC(=O)[C@H](C)N(C)C(=O)[C@H](Cc2ccc(-c3ccccc3)cc2)NC(=O)[C@H]([C@@H](C)O)NC(=O)[C@H]([C@@H](C)O)NC(=O)[C@H](CO)NC1=O [Example 1-14, Ac*-F-V-S-T-T-B-(N-Me)A-(3,4-diCl)F-(N-Me)A-D-R-P-C*-G-NH2] ({CH2CO}-FVSTT[Bip][NMeA][Phe(3,4-Cl2)][NMeA]DRPCG-NH2; thioether N-13)
Maximum % inhibition: 49%

CC(C)[C@@H]1NC(=O)[C@H](Cc2ccccc2)NC(=O)CSC[C@@H](C(=O)NCC(N)=O)NC(=O)[C@@H]2CCCN2C(=O)[C@H](CO)NC(=O)[C@H](CCC(=O)O)NC(=O)[C@H](C)N(C)C(=O)[C@H](Cc2ccc(-c3ccccc3)cc2)NC(=O)[C@H](C)N(C)C(=O)[C@H](Cc2ccc(-c3ccccc3)cc2)NC(=O)[C@H]([C@@H](C)O)NC(=O)[C@H]([C@@H](C)O)NC(=O)[C@H](CC(=O)O)NC1=O [Example 1-10, Ac*-F-V-D-T-T-B-(N-Me)A-B-(N-Me)A-E-S-P-C*-G-NH2] ({CH2CO}-FVDTT[Bip][NMeA][Bip][NMeA]ESPCG-NH2; thioether N-13)
Maximum % inhibition: 90%

CC(C)[C@@H]1NC(=O)[C@H](Cc2ccccc2)NC(=O)CSC[C@@H](C(=O)NCC(N)=O)NC(=O)[C@@H]2CCCN2C(=O)[C@H](CO)NC(=O)[C@H](CC(N)=O)NC(=O)[C@H](CCC(=O)O)N(C)C(=O)[C@H](Cc2ccc(-c3ccccc3)cc2)NC(=O)[C@H](Cc2ccccc2)N(C)C(=O)[C@H](CO)NC(=O)[C@H]([C@@H](C)O)NC(=O)[C@H]([C@@H](C)O)NC(=O)[C@H](CC(=O)O)NC1=O [Example 1-1] ({CH2CO}-FVDTTS[NMeF][Bip][NMeE]NSPCG-NH2; thioether N-13)
Maximum % inhibition: 65%

CC(C)[C@@H]1NC(=O)[C@H](Cc2ccccc2)NC(=O)CSC[C@@H](C(=O)NCC(N)=O)NC(=O)[C@@H]2CCCN2C(=O)[C@H](CO)NC(=O)[C@H](CCC(=O)O)NC(=O)[C@H](C)N(C)C(=O)[C@H](Cc2ccc(-c3ccccc3)cc2)NC(=O)[C@H](C)N(C)C(=O)[C@H](Cc2ccc(-c3ccccc3)cc2)NC(=O)[C@H]([C@@H](C)O)NC(=O)[C@H]([C@@H](C)O)NC(=O)[C@H](CO)NC1=O [Example 1-25, Ac*-F-V-S-T-T-B-(N-Me)A-B-(N-Me)A-E-S-P-C*-G-NH2] ({CH2CO}-FVSTT[Bip][NMeA][Bip][NMeA]ESPCG-NH2; thioether N-13)
Maximum % inhibition: 68%

CC(C)[C@@H]1NC(=O)[C@H](Cc2ccccc2)NC(=O)CSC[C@@H](C(=O)NCC(N)=O)NC(=O)[C@@H]2CCCN2C(=O)[C@H](CO)NC(=O)[C@H](CCC(=O)O)NC(=O)[C@H](C)N(C)C(=O)[C@H](Cc2ccc(-c3ccccc3)cc2)NC(=O)[C@H](C)N(C)C(=O)[C@H](Cc2ccccc2)NC(=O)[C@H]([C@@H](C)O)NC(=O)[C@H]([C@@H](C)O)NC(=O)[C@H](CC(=O)O)NC1=O [Example 1-17, Ac*-F-V-D-T-T-F-(N-Me)A-B-(N-Me)A-E-S-P-C*-G-NH2] ({CH2CO}-FVDTTF[NMeA][Bip][NMeA]ESPCG-NH2; thioether N-13)
Maximum % inhibition: 91%

CCNC(=O)[C@@H]1CSCC(=O)N[C@@H](Cc2ccccc2)C(=O)N[C@@H](C(C)C)C(=O)N[C@@H](CC(N)=O)C(=O)N[C@@H]([C@@H](C)O)C(=O)N[C@@H]([C@@H](C)O)C(=O)N[C@@H](Cc2ccccc2)C(=O)N(C)[C@@H](C)C(=O)N[C@@H](Cc2ccc(-c3ccccc3)cc2)C(=O)N(C)[C@@H](C)C(=O)N(C)[C@@H](CCC(=O)O)C(=O)N[C@@H](C)C(=O)N2CCC[C@H]2C(=O)N1 [Example 3-1, 3-((3R,9S,12S,15S,18S,21S,24S,27S,30S,33S,36S,39S,44aS)-30-([1,1′-biphenyl]-4-ylmethyl)-15-(2-amino-2-oxoethyl)-9,24-dibenzyl-3-(ethylcarbamoyl)-18,21-bis((R)-1-hydroxyethyl)-12-isopropyl-26,27,32,33,35,39-hexamethyl-1,7,10,13,16,19,22,25,28,31,34,37,40-tridecaoxodotetracontahydro-6H-pyrrolo[2,1-f][1]thia[4,7,10,13,16,19,22,25,28,31,34,37,40]tridecaazacyclodotetracontin-36-yl)propanoic acid] ({CH2CO}-FVNTTF[NMeA][Bip][NMeA][NMeE]APC-NHEt; thioether N-13)
Maximum % inhibition: 61%

From US12209144B2, “Cyclic peptides as proprotein convertase subtilisin/kexin type 9 (PCSK9) inhibitors for the treatment of metabolic disorders” (Novartis AG, priority 2018, dated 2025)
